Key:
[1] = system: ear of Sprague Dawley Rats; experiment: Toxicity study: topical application of tazarotene spiked with dimer impurity on rat ears, ear thickness measurement; format: in vivo
Protocol: Inventor performed the toxicity study of tazarotene spiked with known dimer impurity by applying the fixed concentration a solution of tazarotene (0.1% w/v tazarotene) with variable concentrations of impurity (0-1500 ppm) on Sprague Dawley Rats as given in Table 1.
Each sample (100 μl) was applied topically once daily on the left and right ear of the animals (Sprague Dawley Rats) of the respective groups from day 0 to day 9. Animals were checked for recovery from day 10 to day 14. Ear thickness measurement was repeated on day 3, 7, 10, 12 and 14.

[2] = tazarotene gel, psoriasis, cited from earlier work

| SMILES | effect of level of dimer impurity on ear thickness and inflammation ([1]; dimer impurity 0-1500 ppm in tazarotene samples, topical application) | toxicity of the dimer impurity ([1]; found during the animal studies) | cessation of treatment due to adverse events ([2]; of patient population) | most common adverse effect [2] |
| --- | --- | --- | --- | --- |
| CC1(C)CCSc2ccc(C#CC#Cc3ccc4c(c3)C(C)(C)CCS4)cc21 [dimer impurity, 4,4-dimethyl-6-[4-(4,4-dimethylthiochroman-6-yl)-buta-1,3-diynyl]-thiochroman] | dose dependent and significant increase | highly toxic |  |  |
| CCOC(=O)c1ccc(C#Cc2ccc3c(c2)C(C)(C)CCS3)nc1 [tazarotene, ethyl 6-[(4,4-dimethylthiochroman-6-yl)ethynyl]nicotinate] |  |  | about 5% | mild to moderate burning, pruritus, stinging and erythema |
